This note sets out measurements from patent US7256183B2, “Method for treating or preventing inflammatory diseases” (Inspire Pharmaceuticals, Inc., priority 2001, dated 2007).

In assay [1] the test system is compound 48/80 ocular surface type-1 hypersensitivity. Put plainly: Ocular Type-1 hypersensitivity in albino rats (topical 48/80 model). It counts as in vivo. As to conditions: FIG. 1; for magnitude of reduction in vascular leakage and Evans blue extravasation, UP4U versus reference controls: rats, 48/80, 2% UP4U, 0.05% levocabastine, 0.025% ketotifen, 0.1% olopatadine eye drops. As to the method: The rat model of ocular immediate (Type-1) hypersensitivity using topical compound 48/80 was used for testing anti-inflammatory drugs (Feinberg and Stokes, Int. Arch. Allergy Appl. Immunol. 82(3-4): 537-8. (1987)). The effects of levocabastine, ketotifen, and olopatadine, which are three approved drugs for the use of ocular surface inflammation, particularly allergic conjunctivitis, were assessed. UP4U was investigated for its effects on mitigating the clinical signs of compound 48/80 on ocular surface type-1 hypersensitivity. Ten albino rats per group were administered compound or vehicle four times daily for 3 days and twice on the fourth day (the last administration 2 h before challenge with 48/80). Comparison was made between the test substances, the test substances vehicle, the reference substance (0.05% levocabastine eye drops—Lévophta®; 0.025% ketotifen eyedrops—Zaditor®; and 0.1% olopatadine eyedrops—Patanol™), and negative control animals (untreated and unchallenged). Eye drops were instilled into the right conjunctival sac of each animal with test substances. […] The formulated compounds or vehicle were allowed to gradually run from the top to the bottom of the ocular surface. Efficacy was evaluated by measuring edema: clinical scores and extravasation of Evans blue dye (blood-eyelids and blood-eyeballs permeability indexes). The model has been previously validated (Khosravi, et al., Inflamm. Res. 44(1): 47-54 (1995)).

Assay [2] deals with ocular active anaphylaxis with egg albumin as an antigen. Put plainly: Ocular active anaphylaxis, guinea pig egg albumin model. It counts as in vivo, albino guinea pigs. As to conditions: FIG. 2; for magnitude of reduction on eyeballs, UP4U versus reference controls: guinea pigs, egg albumin, 2% UP4U, 0.05% levocabastine, 0.025% ketotifen, 0.1% olopatadine eye drops. The text has this:
The guinea pig model of ocular active anaphylaxis with egg albumin as an antigen, serves as a testing system for anti-inflammatory and anti-allergic drugs (Yamaji, et al., Methods Find. Exp. Clin. Pharmacol. 19(9): 637-43 (1997)). The ocular effects of compounds and vehicle control were investigated using an experimentally-induced ocular active anaphylaxis in the guinea pig. Ten albino guinea pigs per group were sensitized with an intraperitoneal injection of egg albumin, followed 14 days later with a challenge by a single ocular instillation of egg albumin. Four times daily for 3 days and twice on the fourth day (the last one 2 h before challenge), test substances were instilled into the right conjunctival sac of the animals. The immune response was induced by immunization with egg albumin, and the ocular reaction was induced by ocular instillation of egg albumin, thereby causing the release of allergy mediators and ocular edema. Efficacy was evaluated by measuring edema: clinical scores and extravasation of Evans blue dye (blood-eyelids and blood-eyeballs permeability indexes). Comparison was made between the test substances, the test substances vehicle, the reference substance (0.05% levocabastine eye drops—Lévophta®; 0.025% ketotifen eyedrops—Zaditor®; and 0.1% olopatadine eyedrops—Patanol™), and negative control animals (untreated and unchallenged). The model was previously validated (Khosravi, et al., Inflamm. Res. 44(1): 47-54 (1995)).

In assay [3] the test system is mucociliary clearance of nasal tissue. Put plainly: Nasal spray saccharin transport time (STT) test. It counts as in vivo, humans. As to conditions: for mean STT: pooled PAR and NR and across doses 5-80 mg/mL, single dose nasal spray, with outliers, (±SD); for STT mean (± SD): across all cohorts, NR and PAR groups pooled, without outliers (<1 minute or >30 minutes excluded). As to the method: The speed with which the saccharin was transported this distance is a measure of mucociliary clearance.
Sixty subjects, 30 healthy non-rhinitic (NR) volunteers and 30 subjects with perennial allergic rhinitis (PAR), participated in a randomized, double-blind, single-center, 2-period crossover study evaluating escalating, single doses of a UP4dC nasal spray delivered as a non-preserved aqueous nasal spray. Each subject received a single dose (2 sprays in each nostril, 140 μL/spray) of UP4dC and placebo (0.9% w/v saline spray) on two treatment days in random order (crossover design). Five cohorts of 12 subjects received five concentration levels of UP4dC (5, 10, 20, 40, and 80 mg/mL) in ascending order. The STT was performed 5-minutes and 300-minutes post-dose on each treatment day on each subject (a saccharin particle was placed in the nose at 5 and 300 minutes post-dose and then time to taste was recorded).
Analyses were carried out excluding those STT values that were either too fast (<1 minute) or too slow (>30 minutes). Both of these scenarios are deemed as errors and are a likely result of the saccharin particle being inappropriately administered.

The test system of assay [4] is symptoms of perennial allergic rhinitis (PAR). Put plainly: Perennial allergic rhinitis symptom study with nasal spray. It counts as in vivo, humans. The text has this: This example illustrates the efficacy of a U[…] nasal spray in reducing the symptoms of perennial allergic rhinitis (PAR) in humans. Patients with PAR suffer year-round from symptoms of allergic rhinitis because they are sensitized to allergens that are present in homes and the environment throughout the year, including dust mites, molds, and animal […] (dogs, cats, cockroaches, etc). Patients with PAR experience a constellation of nasal symptoms including nasal stuffiness/congestion, runny nose, post-nasal drip, sneezing and nasal itching. These symptoms were evaluated in pivotal efficacy trials as the total nasal symptom score (TNSS) as well as by evaluating each individual symptom, including the non-nasal symptoms of facial pain/pressure and cough. Patients rated each individual symptom on a scale from 0 (none) to 3 (severe) twice daily, reflecting their symptoms upon awakening (AM) and throughout the day (PM). Fifty-nine subjects with a documented history of PAR participated in a randomized, double-blind, 3-center, parallel-group study. […] Study medication was delivered twice daily as a non-preserved aqueous nasal spray as 2 sprays (100 μL in each spray) in each nostril. […] This was most notable for the 10 mg/ml U[…] group. Comparisons of pooled active versus placebo TNSS scores approached statistical significance for AM scores (p=0.139). Table 3 indicates the symptom and dose combinations that provided statistically significant reductions (p≦0.05) compared with placebo on any day during the 6-day treatment period. Conversely, significant symptom reductions in favor of placebo were observed on one day (PM sneezing, Day 2).

The mark [5] stands for this setting: 5 mg/mL, 6-day treatment period.
[6] abbreviates: 10 mg/mL, 6-day treatment period.
Where [7] appears, read: 40 mg/mL, 6-day treatment period.

Structures are written as SMILES.

Consider `O=c1ccn([C@@H]2O[C@H](COP(=O)(O)OP(=O)(O)OP(=O)(O)OP(=O)(O)OC[C@H]3O[C@@H](n4ccc(=O)[nH]c4=O)[C@H](O)[C@@H]3O)[C@@H](O)[C@H]2O)c(=O)[nH]1` [UP4U, P^1,P^4-di(uridine 5′-)tetraphosphate], for which, in assay [1] (rats treated with 48/80 on the ocular surface, 2% UP4U eye drops four times daily for 3 days and twice on the fourth day), the “vascular leakage and Evans blue extravasation on eyelids and eyeballs” value is “reduced”. The “magnitude of reduction in vascular leakage and Evans blue extravasation, UP4U versus reference controls” value in assay [1] is “comparable”. Further, the “vascular leakage and Evans blue extravasation on eyeballs” value in assay [2] (guinea pigs challenged with egg albumin, 2% UP4U eye drops four times daily for 3 days and twice on the fourth day) is listed as “reduced”. Besides, the “magnitude of reduction on eyeballs, UP4U versus reference controls” value (from here on “magnitude of reduction on eyeballs”) in assay [2] is on record as “comparable”.
For the molecule `Nc1ccn([C@H]2C[C@H](O)[C@@H](COP(=O)(O)OP(=O)(O)OP(=O)(O)OP(=O)(O)OC[C@H]3O[C@@H](n4ccc(=O)[nH]c4=O)[C@H](O)[C@@H]3O)O2)c(=O)n1` [UP4dC, P^1-(2′-deoxycytidine 5′)-P^4-(uridine 5′-)tetraphosphate], the entries for the “mean STT” value in assay [3] (5-hour (300-minute) post-dose assessment) and in assay [3] (5-minute post-dose assessment) were 9.58 (±10.30) minutes and 7.04 (±6.06) minutes, respectively. Moreover, the figures for the “STT mean (± SD)” value in assay [3] (5 minute) and in assay [3] (300 minute) were 6.89 (5.36) minutes and 8.41 (5.79) minutes, respectively. The “time elapsed before the saccharin was tasted compared to placebo” value in assay [3] (UP4dC nasal spray, single dose, humans) was “shorten”. Also, the entries for the “days with statistically significant reductions (p≦0.05) compared with placebo: Nasal blockage/stuffiness” value in assay [4] (setting [5]) and in assay [4] (setting [6]) were “AM-Day 4” and “AM-Day 5”, respectively. For the same molecule, the “days with statistically significant reductions (p≦0.05) compared with placebo: Post-nasal drip” value was “AM-Days 4 and 6” in assay [4] (setting [5]); “AM-Days 5 and 6” in assay [4] (setting [6]). In addition, the “days with statistically significant reductions (p≦0.05) compared with placebo: Rhinorrhea” value in assay [4] (setting [6]) is “PM-Day 5”. Besides, the “days with statistically significant reductions (p≦0.05) compared with placebo: Total Symptom Score” value in assay [4] (setting [6]) is “AM-Days 5 and 6”; in assay [4] (setting [7]), “PM-Day 5”. The “days with statistically significant reductions (p≦0.05) compared with placebo: Itching” value in assay [4] (setting [7]) is “AM-Day 3”. The “days with statistically significant reductions (p≦0.05) compared with placebo: TNSS” value in assay [4] (setting [7]) is given as “AM-Day 3”. The “change from the placebo run-in period in TNSS averaged over the entire 6-day treatment period” value is −0.96 (2.08) in assay [4] (AM (0–15 scale), 5 mg/mL nasal spray twice daily); −1.20 (2.00) in assay [4] (AM (0–15 scale), 10 mg/mL nasal spray twice daily); −1.14 (2.02) in assay [4] (AM (0–15 scale), 40 mg/mL nasal spray twice daily); −2.02 (4.31) in assay [4] (AM + PM (0–30 scale), 5 mg/mL nasal spray twice daily); −2.59 (4.50) in assay [4] (AM + PM (0–30 scale), 10 mg/mL nasal spray twice daily); −2.09 (3.99) in assay [4] (AM + PM (0–30 scale), 40 mg/mL nasal spray twice daily). Also, the “change from the placebo run-in period in TNSS averaged over the entire 6-day treatment period” value in assay [4] (PM (0–15 scale), 5 mg/mL nasal spray twice daily) is −0.94 (2.07); in assay [4] (PM (0–15 scale), 10 mg/mL nasal spray twice daily), −1.26 (2.46); in assay [4] (PM (0–15 scale), 40 mg/mL nasal spray twice daily), −1.01 (2.55). In assay [4] (active treatment groups 5, 10, 40 mg/mL, not statistically significant versus placebo), the “reductions in TNSS compared with placebo for AM, PM, and AM+PM analyses” value was “consistently greater reductions”.
With `CN1CCC(=C2c3ccccc3CC(=O)c3sccc32)CC1` [ketotifen, reference compound], in assay [1], the “magnitude of reduction in vascular leakage and Evans blue extravasation, UP4U versus reference controls” value is on record as “comparable”. Moreover, the “magnitude of reduction on eyeballs” value in assay [2] is “comparable”.
On to `C[C@@H]1CN([C@H]2CC[C@](C#N)(c3ccc(F)cc3)CC2)CC[C@]1(C(=O)O)c1ccccc1` [levocabastine, reference compound], for which the “magnitude of reduction in vascular leakage and Evans blue extravasation, UP4U versus reference controls” value in assay [1] is on record as “comparable”. In addition, in assay [2], the “magnitude of reduction on eyeballs” value was “comparable”.
With `CN(C)CC/C=C1/c2ccccc2COc2ccc(CC(=O)O)cc21` [olopatadine, reference compound], the “magnitude of reduction in vascular leakage and Evans blue extravasation, UP4U versus reference controls” value in assay [1] is recorded as “comparable”. For the same molecule, the “magnitude of reduction on eyeballs” value in assay [2] is listed as “comparable”.
